Data as given in ChEMBL document CHEMBL1153074, “Novel, achiral aminoheterocycles as selective monoamine reuptake inhibitors” (Bioorg Med Chem Lett, 2009).
pKi: −log10 of the molar value.

Experiments:
[1] = molecular target: Sodium-dependent noradrenaline transporter (Homo sapiens, UniProt P23975)
[2] = molecular target: Sodium-dependent dopamine transporter (Homo sapiens, UniProt Q01959)
[3] = molecular target: Sodium-dependent serotonin transporter (Homo sapiens, UniProt P31645)
hERG (KCNH2) = hERG (KCNH2) (Homo sapiens, UniProt Q12809); assay: in vitro; settings: CHO cells expressing human ERG
Sequence of hERG (KCNH2) (Q12809 whole entry): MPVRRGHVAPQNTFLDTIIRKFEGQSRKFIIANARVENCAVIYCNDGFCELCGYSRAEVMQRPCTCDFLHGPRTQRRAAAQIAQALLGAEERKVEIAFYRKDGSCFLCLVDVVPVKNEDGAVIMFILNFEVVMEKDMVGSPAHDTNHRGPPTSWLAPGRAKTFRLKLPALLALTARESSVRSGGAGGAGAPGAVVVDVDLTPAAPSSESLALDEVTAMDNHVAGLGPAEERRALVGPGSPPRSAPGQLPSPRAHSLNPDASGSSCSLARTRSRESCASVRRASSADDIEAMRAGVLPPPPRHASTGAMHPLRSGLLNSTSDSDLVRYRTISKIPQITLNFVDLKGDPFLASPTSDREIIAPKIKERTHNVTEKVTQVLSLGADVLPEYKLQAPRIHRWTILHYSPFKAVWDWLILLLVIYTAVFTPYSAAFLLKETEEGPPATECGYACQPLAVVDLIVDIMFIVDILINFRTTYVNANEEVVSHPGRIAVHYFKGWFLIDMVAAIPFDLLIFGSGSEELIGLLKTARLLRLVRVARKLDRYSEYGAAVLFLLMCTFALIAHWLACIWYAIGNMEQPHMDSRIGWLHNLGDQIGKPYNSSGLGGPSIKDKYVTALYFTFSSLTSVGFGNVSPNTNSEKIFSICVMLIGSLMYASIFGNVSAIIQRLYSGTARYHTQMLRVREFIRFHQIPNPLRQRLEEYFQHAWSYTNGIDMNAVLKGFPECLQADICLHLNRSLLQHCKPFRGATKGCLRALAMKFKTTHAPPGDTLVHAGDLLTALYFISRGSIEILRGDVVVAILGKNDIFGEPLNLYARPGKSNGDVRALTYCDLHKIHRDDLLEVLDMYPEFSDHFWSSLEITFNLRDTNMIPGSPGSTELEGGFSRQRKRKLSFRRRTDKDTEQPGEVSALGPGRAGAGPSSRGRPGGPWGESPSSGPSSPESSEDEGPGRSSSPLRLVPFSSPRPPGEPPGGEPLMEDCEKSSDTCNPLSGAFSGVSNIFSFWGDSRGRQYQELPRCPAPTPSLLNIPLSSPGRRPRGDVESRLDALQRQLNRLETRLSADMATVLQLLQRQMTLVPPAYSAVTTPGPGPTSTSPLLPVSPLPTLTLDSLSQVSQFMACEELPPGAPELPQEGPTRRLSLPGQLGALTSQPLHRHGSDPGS
Description: Inhibition of human ERG expressed in CHO cells

CYP3A4 = CYP3A4 (Homo sapiens, UniProt P08684); assay: in vitro
Sequence of CYP3A4 (P08684 whole entry): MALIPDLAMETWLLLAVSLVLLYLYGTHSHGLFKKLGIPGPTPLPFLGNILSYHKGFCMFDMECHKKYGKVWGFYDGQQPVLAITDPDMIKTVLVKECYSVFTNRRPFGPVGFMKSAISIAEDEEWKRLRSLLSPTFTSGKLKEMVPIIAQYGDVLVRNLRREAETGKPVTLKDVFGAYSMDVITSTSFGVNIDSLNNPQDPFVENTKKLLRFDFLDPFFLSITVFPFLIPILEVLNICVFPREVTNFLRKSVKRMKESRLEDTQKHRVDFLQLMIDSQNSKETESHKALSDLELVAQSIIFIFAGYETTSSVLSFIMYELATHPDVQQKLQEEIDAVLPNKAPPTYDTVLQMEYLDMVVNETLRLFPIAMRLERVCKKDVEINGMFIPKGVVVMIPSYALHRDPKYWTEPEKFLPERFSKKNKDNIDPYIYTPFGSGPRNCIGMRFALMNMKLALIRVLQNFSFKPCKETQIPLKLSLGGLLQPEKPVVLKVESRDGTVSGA
Description: Inhibition of CYP3A4 by fluorescence assay

CYP2D6 = CYP2D6 (Homo sapiens, UniProt P10635); assay: in vitro
Sequence of CYP2D6 (P10635 whole entry): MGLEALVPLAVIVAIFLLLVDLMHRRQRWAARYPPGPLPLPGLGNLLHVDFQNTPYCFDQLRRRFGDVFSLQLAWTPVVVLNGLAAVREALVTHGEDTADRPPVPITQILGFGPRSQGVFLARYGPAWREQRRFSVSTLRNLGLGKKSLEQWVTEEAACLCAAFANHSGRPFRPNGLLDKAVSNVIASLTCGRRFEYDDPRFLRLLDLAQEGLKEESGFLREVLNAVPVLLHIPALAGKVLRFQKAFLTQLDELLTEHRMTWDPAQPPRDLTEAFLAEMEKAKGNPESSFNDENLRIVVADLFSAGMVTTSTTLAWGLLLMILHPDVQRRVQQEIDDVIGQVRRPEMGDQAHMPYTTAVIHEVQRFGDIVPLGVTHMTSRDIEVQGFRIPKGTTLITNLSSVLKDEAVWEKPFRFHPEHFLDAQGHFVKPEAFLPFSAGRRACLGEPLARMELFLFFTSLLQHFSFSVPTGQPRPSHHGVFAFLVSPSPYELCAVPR
Description: Inhibition of CYP2D6 by fluorescence assay

in vitro [4] = settings: human, liver microsomes
Description: Intrinsic clearance in human liver microsomes

in vitro [5] = settings: human, Caco-2
Description: (§1) Apparent permeability from basolateral to apical side of human Caco-2 cells at 10 uM after 21 days

in vitro [6] = settings: human, Caco-2; remark: listed apart in the source
Description: Efflux ratio of apparent permeability from basolateral to apical side to apical to basolateral side in human Caco-2 cells at 10 uM after 21 days

in vitro [7] = settings: human, Caco-2; remark: listed apart in the source
Description: (§2) Apparent permeability from apical to basolateral side of human Caco-2 cells at 10 uM after 21 days

Caco-2 [8] = settings: human, caco-2, 10 µM
Description: as §2

Caco-2 [9] = settings: human, caco-2, 10 µM; remark: listed apart in the source
Description: as §1

Cytochrome P450 3A4 = Cytochrome P450 3A4 (Homo sapiens, UniProt P08684); assay: Inhibition of CYP3A4 in human liver microsomes after 25 mins; format: ADME, Microsome; settings: TDE = time-dependent effect
Sequence of Cytochrome P450 3A4 (P08684 whole entry): as the sequence (P08684 whole entry) above

Sequence of Sodium-dependent dopamine transporter (Q01959 whole entry): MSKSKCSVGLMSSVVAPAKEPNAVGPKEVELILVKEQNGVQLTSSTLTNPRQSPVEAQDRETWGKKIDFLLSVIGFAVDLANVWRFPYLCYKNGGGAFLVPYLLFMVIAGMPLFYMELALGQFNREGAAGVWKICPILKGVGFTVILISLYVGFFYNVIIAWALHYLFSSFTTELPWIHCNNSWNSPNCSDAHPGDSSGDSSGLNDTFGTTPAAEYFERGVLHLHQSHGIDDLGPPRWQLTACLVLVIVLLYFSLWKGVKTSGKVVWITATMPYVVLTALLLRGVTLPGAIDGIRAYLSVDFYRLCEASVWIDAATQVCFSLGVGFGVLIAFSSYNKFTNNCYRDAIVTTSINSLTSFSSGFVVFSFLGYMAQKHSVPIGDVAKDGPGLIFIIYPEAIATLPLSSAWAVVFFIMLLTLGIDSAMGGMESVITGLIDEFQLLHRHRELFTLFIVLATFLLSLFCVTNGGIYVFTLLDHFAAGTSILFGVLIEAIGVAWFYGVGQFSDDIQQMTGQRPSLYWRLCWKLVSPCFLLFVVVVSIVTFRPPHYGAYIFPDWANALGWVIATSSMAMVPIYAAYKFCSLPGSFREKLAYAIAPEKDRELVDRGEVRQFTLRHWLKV
Sequence of Sodium-dependent noradrenaline transporter (P23975 whole entry): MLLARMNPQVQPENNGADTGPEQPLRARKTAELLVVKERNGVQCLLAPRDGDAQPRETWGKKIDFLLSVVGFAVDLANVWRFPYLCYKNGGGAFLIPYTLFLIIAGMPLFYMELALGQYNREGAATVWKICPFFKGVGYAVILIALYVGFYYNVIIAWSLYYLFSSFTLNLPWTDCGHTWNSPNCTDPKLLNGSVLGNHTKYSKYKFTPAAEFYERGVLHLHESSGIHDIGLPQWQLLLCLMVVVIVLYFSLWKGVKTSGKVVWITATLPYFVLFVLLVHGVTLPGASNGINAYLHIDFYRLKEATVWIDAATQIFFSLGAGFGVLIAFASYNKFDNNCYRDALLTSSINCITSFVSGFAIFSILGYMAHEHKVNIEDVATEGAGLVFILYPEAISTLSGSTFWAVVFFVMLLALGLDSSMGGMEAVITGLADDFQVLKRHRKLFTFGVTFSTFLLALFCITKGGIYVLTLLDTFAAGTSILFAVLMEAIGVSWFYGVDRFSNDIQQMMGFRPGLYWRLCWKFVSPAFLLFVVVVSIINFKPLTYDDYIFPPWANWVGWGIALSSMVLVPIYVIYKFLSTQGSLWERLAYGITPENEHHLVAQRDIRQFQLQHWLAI
Sequence of Sodium-dependent serotonin transporter (P31645 whole entry): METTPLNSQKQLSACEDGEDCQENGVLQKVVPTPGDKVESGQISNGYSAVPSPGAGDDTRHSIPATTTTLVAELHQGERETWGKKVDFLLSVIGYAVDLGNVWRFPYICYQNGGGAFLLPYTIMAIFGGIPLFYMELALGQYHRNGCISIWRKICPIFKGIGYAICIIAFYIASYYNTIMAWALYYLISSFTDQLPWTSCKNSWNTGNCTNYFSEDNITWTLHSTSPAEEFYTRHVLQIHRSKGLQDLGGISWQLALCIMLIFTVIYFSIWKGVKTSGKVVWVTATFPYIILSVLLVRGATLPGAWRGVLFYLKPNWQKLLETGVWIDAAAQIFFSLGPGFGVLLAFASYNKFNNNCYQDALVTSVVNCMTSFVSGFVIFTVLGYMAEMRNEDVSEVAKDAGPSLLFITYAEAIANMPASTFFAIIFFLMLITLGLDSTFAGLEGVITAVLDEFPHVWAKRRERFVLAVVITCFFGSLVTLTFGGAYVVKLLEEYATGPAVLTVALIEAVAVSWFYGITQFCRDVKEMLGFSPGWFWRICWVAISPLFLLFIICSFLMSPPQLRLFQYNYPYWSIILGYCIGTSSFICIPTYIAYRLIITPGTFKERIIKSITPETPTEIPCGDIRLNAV

Structure (SMILES) | pKi [1] | pKi [2] | pKi [3] | IC20 (hERG (KCNH2)) [nM] | IC20 (CYP3A4) [nM] | IC20 (CYP2D6) [nM] | microsomal CLint (in vitro [4]) [µL/min/mg] | Papp B→A at 10 µM (in vitro [5]) [×10⁻⁶ cm/s] | efflux ratio at 10 µM (in vitro [6]) | Papp A→B at 10 µM (in vitro [7]) [×10⁻⁶ cm/s] | Papp (Caco-2 [8]) [×10⁻⁶ cm/s] | Papp (Caco-2 [9]) [×10⁻⁶ cm/s] | inhibition (INH) (Cytochrome P450 3A4)
N#Cc1ccccc1CN(c1ccc2[nH]ccc2c1)C1CCNCC1 | 8.20 | 6.30 | 8.40 | – | – | – | – | – | – | – | – | – | –
COc1cccc(CN(c2ccc3[nH]ccc3c2)C2CCNCC2)c1 | 8.40 | 7.10 | 8.80 | 1000 | – | – | – | – | – | – | – | – | –
CNCCN(c1ccccc1)c1ccc2[nH]ccc2c1 | 6.70 | 6.30 | 6.40 | – | 2000 | 40000 | – | – | – | – | – | – | –
c1ccc(CN(c2ccc3[nH]ccc3c2)C2CCNC2)cc1 (stereo unspecified) | 8.00 | 7.50 | 7.70 | < 1000 | 2000 | 2000 | 36 | – | – | – | – | – | –
Fc1ccc(CN(c2ccc3[nH]ccc3c2)C2CCNCC2)cc1 | 6.60 | 6.60 | 8.70 | – | – | – | – | – | – | – | – | – | –
NS(=O)(=O)c1cccc(CN(c2ccc3[nH]ccc3c2)C2CCNCC2)c1 | 7.10 | 7.60 | 8.20 | > 10000 | 2000 | 3000 | 2 | 3 | 4.2 | 0.7 | – | – | –
Cn1ccc2cc(N(Cc3ccccc3)C3CCNCC3)ccc21 | 7.60 | 7.10 | 8.40 | 5100 | 5000 | > 50000 | 26 | – | – | – | 7 | 4 | –
CNCCC(c1ccccc1)c1ccc2[nH]ccc2c1 (stereo unspecified) | – | 6.70 | 7.50 | < 1000 | 3000 | 5000 | 11 | – | – | – | – | – | –
c1ccc(CN(c2ccc3sccc3c2)C2CCNCC2)cc1 | 6.70 | 6.70 | 7.90 | 1000 | 19000 | 35000 | 18 | – | – | – | 1.4 | 0.1 | –
Fc1ccccc1CN(c1ccc2[nH]ccc2c1)C1CCNCC1 | 7.90 | 6.90 | 8.40 | – | – | – | – | – | – | – | – | – | –
c1ccc(N(c2ccc3[nH]ccc3c2)C2CCNCC2)cc1 | 5.90 | < 5.80 | 6.00 | – | 26000 | 14000 | – | – | – | – | – | – | –
c1ccc(CN(c2ccc3[nH]ccc3c2)C2CCNCC2)cc1 | – | – | – | 1000 | 100 | 3000 | 17 | 6 | – | 6 | – | – | tde
c1ccc(CN(c2ccc3[nH]ccc3c2)C2CCCNC2)cc1 (stereo unspecified) | 7.20 | 7.40 | 8.20 | < 1000 | 300 | 5000 | 23 | – | – | – | – | – | –
c1ccc(CN(c2ccc3[nH]ncc3c2)C2CCNCC2)cc1 | 7.80 | 7.30 | 8.90 | < 1000 | 500 | 400 | – | – | – | – | – | – | –
CC(c1ccccc1)N(c1ccc2[nH]ccc2c1)C1CCNCC1 (stereo unspecified) | 5.80 | 5.80 | 7.40 | – | – | – | – | – | – | – | – | – | –
Fc1cccc(CN(c2ccc3[nH]ccc3c2)C2CCNCC2)c1 | 7.90 | 7.10 | 8.90 | – | – | – | – | – | – | – | – | – | –
N#Cc1ccc(CN(c2ccc3[nH]ccc3c2)C2CCNCC2)cc1 | 6.00 | 6.10 | 8.60 | – | – | – | – | – | – | – | – | – | –
c1ccc(CCN(c2ccc3[nH]ccc3c2)C2CCNCC2)cc1 | 7.30 | 6.80 | 8.20 | – | – | – | – | – | – | – | – | – | –
N#Cc1cccc(CN(c2ccc3[nH]ccc3c2)C2CCNCC2)c1 | 8.00 | 7.50 | 9.60 | < 1000 | 2000 | 500 | 13 | 14 | 3.6 | 4 | – | – | –
c1cc2cc(N(CC3CCOCC3)C3CCNCC3)ccc2[nH]1 | 7.40 | 6.30 | 7.40 | – | > 50000 | 27000 | – | – | – | – | – | – | –
